In PMC9732455, “PCW-A1001, AI-assisted de novo design approach to design a selective inhibitor for FLT-3(D835Y) in acute myeloid leukemia” (Frontiers in Molecular Biosciences, 2022):

Assays:
[1] = target: T1, FLT-3 WT (Homo sapiens, UniProt P36888); experiment: in vitro kinase assay (ThermoFisher), dose-response; format: biochemical
T1 construct: gene FLT3
T1 sequence (P36888 27-993): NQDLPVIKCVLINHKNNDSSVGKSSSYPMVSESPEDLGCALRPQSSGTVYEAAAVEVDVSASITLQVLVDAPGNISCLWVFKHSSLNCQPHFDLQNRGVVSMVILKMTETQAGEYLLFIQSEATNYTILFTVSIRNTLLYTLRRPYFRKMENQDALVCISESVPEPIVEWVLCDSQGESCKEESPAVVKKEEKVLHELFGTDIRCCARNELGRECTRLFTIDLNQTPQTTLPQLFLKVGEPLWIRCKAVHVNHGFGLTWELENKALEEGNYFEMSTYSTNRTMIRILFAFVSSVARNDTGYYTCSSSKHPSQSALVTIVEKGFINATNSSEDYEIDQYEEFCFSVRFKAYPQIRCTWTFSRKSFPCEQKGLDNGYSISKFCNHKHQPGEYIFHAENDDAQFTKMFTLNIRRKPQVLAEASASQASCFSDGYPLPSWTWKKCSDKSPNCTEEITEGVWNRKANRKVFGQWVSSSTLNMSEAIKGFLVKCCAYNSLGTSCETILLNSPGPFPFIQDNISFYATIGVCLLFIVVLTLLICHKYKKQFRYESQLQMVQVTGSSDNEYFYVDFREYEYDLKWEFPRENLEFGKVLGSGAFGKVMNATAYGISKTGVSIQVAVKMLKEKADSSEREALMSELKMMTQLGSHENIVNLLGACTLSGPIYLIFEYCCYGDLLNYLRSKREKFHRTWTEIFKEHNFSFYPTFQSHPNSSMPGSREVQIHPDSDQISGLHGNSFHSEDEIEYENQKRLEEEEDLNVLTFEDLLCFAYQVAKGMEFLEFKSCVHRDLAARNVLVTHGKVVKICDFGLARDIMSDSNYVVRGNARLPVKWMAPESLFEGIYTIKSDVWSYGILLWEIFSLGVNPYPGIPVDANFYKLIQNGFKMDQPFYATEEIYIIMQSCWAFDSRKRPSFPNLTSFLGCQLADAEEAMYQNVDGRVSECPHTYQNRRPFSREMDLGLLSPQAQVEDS

[2] = target: T2, FLT-3 (D835Y) (Homo sapiens, UniProt P36888, D835Y); experiment: as above; format: biochemical
T2 construct: gene FLT3
T2 sequence (P36888 564-993 D835Y limits assumed): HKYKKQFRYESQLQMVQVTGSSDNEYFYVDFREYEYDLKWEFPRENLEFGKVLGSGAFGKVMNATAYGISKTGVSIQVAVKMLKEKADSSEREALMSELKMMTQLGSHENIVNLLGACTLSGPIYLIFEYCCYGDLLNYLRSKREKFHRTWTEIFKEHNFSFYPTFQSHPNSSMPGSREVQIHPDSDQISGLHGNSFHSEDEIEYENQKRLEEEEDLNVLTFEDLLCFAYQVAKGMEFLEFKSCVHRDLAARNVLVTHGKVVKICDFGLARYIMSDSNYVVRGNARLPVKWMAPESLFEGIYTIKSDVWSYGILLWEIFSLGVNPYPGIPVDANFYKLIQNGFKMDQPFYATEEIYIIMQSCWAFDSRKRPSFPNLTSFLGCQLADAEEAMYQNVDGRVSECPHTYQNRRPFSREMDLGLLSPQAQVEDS

`CC(C)(C)c1ccc(C(=O)Nc2ccc(C(N)=O)c(NC3CCCNC3)c2)cc1` (centres unmarked) [PCW-A1001] was tested, and the IC50 [1] was 2540 nM and the IC50 [2] was 764 nM.
